In patent EP0474580B1, “Use of 1-[3-(dimethylamino)propyl]-1-phenylphthalenes for the treatment of cerebrovascular disorders” (priority 1990, dated 1992):
Marks after values point to notes of the source that are not given here.

Legend:
[1] = Toxicity study, oral administration in rats; assay type: in vivo; conditions: 350 mg/kg orally, male and female SD rats, observed for one week
From the text: In toxicity studies male and female SD rats ranging in weight from 170 g to 200 g were used one day after fasting.

[2] = test system: ischemia induced hippocampal neuronal damage; assay: Ischemia-induced hippocampal death in gerbils; assay type: in vivo, Mongolian gerbils; conditions: for Survival neurons/mm mean: counted along CA1 after seven days; for protective effect against neuronal lesions: vs vehicle
Description: Test compounds were administered intraperitoneally to Male Mongolian gerbils 30 min before carotid occlusion. Carotid occlusion time was 5 min . Seven days after recovery, the animals were killed, brains removed, sectioned and surviving neurons were counted along CA1 in the hippocampus.

[3] = test system: passive avoidance in ischemic gerbils; assay: Step-down passive avoidance in ischemic gerbils; assay type: in vivo; conditions: for Step-down latency [log(s)] Mean: ischemic gerbils, testing phase (max. 60 s); for latency of ischemic gerbils (testing phase): vs ischemic control
Description: The test employed was step-down passive avoidance in gerbils treated with test compounds prior to occlusion of carotid arteries followed by acquisition trial (training phase).
Test compounds were administered intraperitoneally to gerbils 30 min prior to carotid occlusion or ketamine was administered intraperitoneally 10 min prior to carotid occlusion. The gerbils were anesthetized with 2% halothane contained in a mixture of 70% nitrogen and 30% oxygen. The right and left common carotid arteries were occluded for 5 min. The gerbils were trained for 5 min in a step-down type passive avoidance chamber (16x16x20 cm) two days after induced ischemia. Each gerbil was placed on a safety platform (6x16x20 cm) in the chamber and received a series of mild foot shocks (0.1 mA for 3 s every 6 s), when the gerbil stepped down to a floor made of metal rods. Gerbils were returned to the safety platform for testing 24 h later and their step-down latencies to the grid floor were recorded (max. 60 s). RESULTS

KCN-induced coma = KCN-induced coma in mice; assay type: in vivo, mice (Crj:ICR); conditions: for coma time: vs vehicle
Description: Male mice (Crj:ICR) weighing 20-30 g were used. The mice were fasted for one day. The drugs, dissolved in saline, were injected intraperitoneally. 30 min after the injection, KCN, dissolved in saline, was injected intravenously at a dose of 1.3 mg/kg. The duration of disappearance of righting reflex was measured as coma time.

[4] = test system: carbon dioxide-induced amnesia; assay: Carbon dioxide-induced amnesia in rats (one-trial passive avoidance test); assay type: in vivo, Sprague-Dawley (CD) rats; conditions: for group mean 'step-through' times: oral
From the text: The test employed was a one-trial passive avoidance test in rats, using carbon dioxide asphyxiation to induce amnesia. Female Sprague-Dawley (CD) rats (A. Tick & Son Ltd.) in the body weight range 160-180g were used for the study. The one-trial passive avoidance apparatus consisted of a 32 x 32 x 32 cm chamber with opaque walls and a metal grid floor. A 6 cm wide , 25 cm long runway protruded from the front wall of the chamber. The runway was illuminated while the chamber was dark. When placed on the runway, a rat could enter the chamber through a 6 x 6 cm opening. A scrambled footshock could be delivered through the metal grid floor of the chamber. On the first day of the experiment, the rats received three pre-treatment training trials, during which each animal was placed on the end of the runway and the time taken to enter the chamber (the 'step-through' latency) was determined. On the second day of the experiment, groups of 10 animals were treated p.o. with test compound dissolved in saline or with saline. One hour after administration, an acquisition trial was performed. This was similar to a training trial, except that the rats received a footshock of 1.0 mA for 10 s commencing 10 s after entering the chamber. Immediately after the application of the footshock the animals were subjected to amnesic treatment. Amnesic treatment consisted of placing the rats in a box filled with carbon dioxide until respiratory arrest occurred; the rats were then revived by artificial respiration. 24 Hours after the acquisition trial, a single retrieval trial was given to each rat and the time taken to enter the chamber ('step-through' latency) was recorded for each animal.

[5] = test system: depression associated with Alzheimer's disease; conditions: C.G. Gottfries, Psychopharmacology, 1988; cited from earlier work
[6] = test system: moderate dementia of Alzheimer's type (AD/SDAT) or multi-infarct dementia (MID); conditions: patients with moderate AD/SDAT or MID; Nyth et al. 1988/1990; cited from earlier work
[7] = test system: vascular dementia (VD, incl. MID); conditions: patients with vascular dementia (VD, incl. MID); Nyth et al. 1989; cited from earlier work
[8] = test system: ischemia-induced death in bilateral carotid arterial ligation (BCAL); assay: Brain ischemia-induced death in mice (bilateral carotid arterial ligation); assay type: in vivo, ICR MICE
Description: Male ICR MICE (Charles River) weighing 30 - 40 g were used after they were fasted for 1 day.
[…] Surviving mice were observed over 4 h.

CN(C)CCCC1(c2ccc(F)cc2)OCc2cc(C#N)ccc21 (stereo not drawn) [Citalopram, citalopram]
deaths [1]: no deaths were observed | Survival neurons/mm mean ([2]; 20 mg/kg i.p. 30 min before 5 min carotid occlusion): 38.0 neurons/mm | protective effect against neuronal lesions ([2]; 20 mg/kg): weak but non-significant protective effect | Survival neurons/mm mean ([2]; 40 mg/kg i.p. 30 min before 5 min carotid occlusion): 95.8 neurons/mm | protective effect against neuronal lesions ([2]; 40 mg/kg): significant (p < 0.05 ) protective effect | Step-down latency [log(s)] Mean ([3]; 20 mg/kg i.p. 30 min prior to carotid occlusion): 1.386 log(s) | latency of ischemic gerbils (testing phase) ([3]; 20 mg/kg): significantly increased the latency | Coma time (s) Mean (KCN-induced coma; 1.25 mg/kg i.p. 30 min before KCN 1.3 mg/kg i.v.): 38.5 s | Coma time (s) Mean (KCN-induced coma; 2.5 mg/kg i.p. 30 min before KCN 1.3 mg/kg i.v.): 33.2 s | Coma time (s) Mean (KCN-induced coma; 5 mg/kg i.p. 30 min before KCN 1.3 mg/kg i.v.): 35.0 s | Coma time (s) Mean (KCN-induced coma; 10 mg/kg i.p. 30 min before KCN 1.3 mg/kg i.v.): 27.4 s | coma time (KCN-induced coma; 10 mg/kg intraperitoneal): significantly reduced coma time | Latency ([4]; 5 mg/kg p.o. one hour before acquisition trial, CO2 treatment +, retrieval trial 24 h later (max. 180 s)): 31.2 s | Latency (s) ([4]; 10 mg/kg p.o. one hour before acquisition trial, CO2 treatment +, retrieval trial 24 h later (max. 180 s)): 77.2** s | Latency (s) ([4]; 20 mg/kg p.o. one hour before acquisition trial, CO2 treatment +, retrieval trial 24 h later (max. 180 s)): 114.3*** s | group mean 'step-through' times ([4]; 2 highest doses tested (i.e. 20 and 40 mg/kg)): marked and highly significant increase | group mean 'step-through' times ([4]; all doses tested, vs saline-treated control group): dose-related increases | effect against depression associated with Alzheimer's disease [5]: effective | effect on intellectual functions [6]: did not appear to have effect | emotional lability, motivation, confusion, fear-panic, irritation, reduced mood and restlessness [6]: significant improvements | emotional disturbances [7]: no significant improvement

CC(C(O)c1ccc(O)cc1)N1CCC(Cc2ccccc2)CC1 (stereo not drawn) [Ifenprodil]
Survival rate (%) 2 h after BCAL ([8]; 30 mg/kg,p.o., 30 min prior to ligation, 2 h after BCAL): 47** % | Survival rate (%) 4 h after BCAL ([8]; 30 mg/kg,p.o., 30 min prior to ligation, 4 h after BCAL): 20% | ischemia-induced death / survival rate 2 h after ligation ([8]; 30 mg/kg, 2 h after bilateral carotid arterial ligation, vs saline): significantly increased survival rate | ischemia-induced death / survival rate 4 h after ligation ([8]; 30 mg/kg, 4 h after bilateral carotid arterial ligation, vs saline): did not significantly increase survival rate

C1=Cc2cccc(OCC3CNCCO3)c2C1 (stereo not drawn) [Indeloxazine, reference compound]
Step-down latency [log(s)] Mean ([3]; 40 mg/kg i.p. 30 min prior to carotid occlusion): 1.085 log(s) | latency of ischemic gerbils (testing phase) ([3]; 40 mg/kg): not significantly different | Coma time (s) Mean (KCN-induced coma; 20 mg/kg i.p. 30 min before KCN 1.3 mg/kg i.v.): 13.8 s | coma time (KCN-induced coma; 20 mg/kg): significantly reduced the coma time

CNC1(c2ccccc2Cl)CCCCC1=O (stereo not drawn) [Ketamine, reference compound]
Survival neurons/mm mean ([2]; 100 mg/kg i.p. before 5 min carotid occlusion): 174.5 neurons/mm | protective effect against neuronal lesions ([2]; 100 mg/kg): significant (p < 0.01) protective effect | Step-down latency [log(s)] Mean ([3]; 120 mg/kg i.p. 10 min prior to carotid occlusion): 1.348 log(s) | latency of ischemic gerbils (testing phase) ([3]; 120 mg/kg): significantly increased the latency

NC(=O)CN1CCCC1=O [Piracetam, reference compound]
Latency (s) ([4]; 300 mg/kg p.o. one hour before acquisition trial, CO2 treatment +, retrieval trial 24 h later (max. 180 s)): 108.8*** s | time of entry ('step-through' latency) compared with vehicle ([4]; oral doses of 40 or 1000 mg/kg, indicates no marked muscle incoordination or CNS effects): no significant differences | 'step-through' latencies ([4]; piracetam treatment, dose not given): statistically significantly longer
